{
  "source": "ChEMBL document CHEMBL5465560",
  "about": "“Selectivity Literature for EUbOPEN Chemogenomic Library” (2024)",
  "key": {"[1]": {"target": "Calcium/calmodulin-dependent protein kinase type 1 (Homo sapiens) (UniProt Q14012)", "sequence (Q14012 whole entry, looked up)": "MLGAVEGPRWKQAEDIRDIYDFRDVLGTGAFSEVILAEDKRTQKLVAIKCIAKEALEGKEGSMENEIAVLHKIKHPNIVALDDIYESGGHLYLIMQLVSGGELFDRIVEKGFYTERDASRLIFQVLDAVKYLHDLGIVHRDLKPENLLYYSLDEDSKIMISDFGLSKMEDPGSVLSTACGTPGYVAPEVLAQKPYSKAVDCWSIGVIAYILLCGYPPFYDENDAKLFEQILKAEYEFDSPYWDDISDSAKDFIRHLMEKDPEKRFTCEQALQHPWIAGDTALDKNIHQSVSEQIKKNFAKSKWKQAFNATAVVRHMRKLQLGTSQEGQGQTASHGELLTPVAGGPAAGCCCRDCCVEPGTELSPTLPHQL", "assay": "Selectivity interaction (KinomeScan (DiscoverX)) EUB0000092b CAMK1", "conditions": "at 10 µM"}, "[2]": {"target": "Death-associated protein kinase 1 (Homo sapiens, UniProt P53355)", "assay": "Selectivity interaction (KinomeScan (DiscoverX)) EUB0000655a DAPK1", "conditions": "at 10 µM"}, "[3]": {"target": "Tyrosine-protein kinase ABL1 (Homo sapiens, UniProt P00519)", "sequence (P00519 whole entry)": "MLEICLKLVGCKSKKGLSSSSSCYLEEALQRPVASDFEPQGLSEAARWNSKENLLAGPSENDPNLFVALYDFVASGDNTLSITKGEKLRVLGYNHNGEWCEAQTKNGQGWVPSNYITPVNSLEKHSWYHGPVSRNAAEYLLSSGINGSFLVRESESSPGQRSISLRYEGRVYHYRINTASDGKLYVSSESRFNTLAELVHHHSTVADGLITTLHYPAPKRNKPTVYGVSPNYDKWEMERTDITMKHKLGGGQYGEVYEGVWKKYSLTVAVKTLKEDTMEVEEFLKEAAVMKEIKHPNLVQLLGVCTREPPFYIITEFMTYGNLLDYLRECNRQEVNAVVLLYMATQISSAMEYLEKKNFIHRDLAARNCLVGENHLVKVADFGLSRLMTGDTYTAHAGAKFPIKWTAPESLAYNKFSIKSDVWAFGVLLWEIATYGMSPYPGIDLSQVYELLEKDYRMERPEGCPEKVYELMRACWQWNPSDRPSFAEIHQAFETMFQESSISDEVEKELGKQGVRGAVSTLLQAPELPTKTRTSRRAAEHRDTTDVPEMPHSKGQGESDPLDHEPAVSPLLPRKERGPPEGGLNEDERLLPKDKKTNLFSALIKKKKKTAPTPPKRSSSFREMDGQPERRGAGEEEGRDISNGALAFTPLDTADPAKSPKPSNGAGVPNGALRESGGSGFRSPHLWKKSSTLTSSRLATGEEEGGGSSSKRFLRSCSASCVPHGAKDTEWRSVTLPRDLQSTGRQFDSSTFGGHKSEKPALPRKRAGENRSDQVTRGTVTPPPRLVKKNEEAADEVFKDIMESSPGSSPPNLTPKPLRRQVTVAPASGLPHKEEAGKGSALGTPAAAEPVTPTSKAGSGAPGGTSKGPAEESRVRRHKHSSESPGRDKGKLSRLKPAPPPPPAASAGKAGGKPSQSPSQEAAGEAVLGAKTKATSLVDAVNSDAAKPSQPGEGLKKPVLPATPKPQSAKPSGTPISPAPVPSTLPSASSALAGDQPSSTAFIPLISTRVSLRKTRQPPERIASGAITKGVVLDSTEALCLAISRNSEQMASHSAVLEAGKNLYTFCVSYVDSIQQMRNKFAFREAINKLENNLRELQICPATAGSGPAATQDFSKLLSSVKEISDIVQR", "assay": "Selectivity interaction (KinomeScan (DiscoverX)) EUB0001079a ABL1", "conditions": "at 1 µM"}, "[4]": {"target": "Serine/threonine-protein kinase PRP4 homolog (Homo sapiens) (UniProt Q13523)", "sequence (Q13523 whole entry)": "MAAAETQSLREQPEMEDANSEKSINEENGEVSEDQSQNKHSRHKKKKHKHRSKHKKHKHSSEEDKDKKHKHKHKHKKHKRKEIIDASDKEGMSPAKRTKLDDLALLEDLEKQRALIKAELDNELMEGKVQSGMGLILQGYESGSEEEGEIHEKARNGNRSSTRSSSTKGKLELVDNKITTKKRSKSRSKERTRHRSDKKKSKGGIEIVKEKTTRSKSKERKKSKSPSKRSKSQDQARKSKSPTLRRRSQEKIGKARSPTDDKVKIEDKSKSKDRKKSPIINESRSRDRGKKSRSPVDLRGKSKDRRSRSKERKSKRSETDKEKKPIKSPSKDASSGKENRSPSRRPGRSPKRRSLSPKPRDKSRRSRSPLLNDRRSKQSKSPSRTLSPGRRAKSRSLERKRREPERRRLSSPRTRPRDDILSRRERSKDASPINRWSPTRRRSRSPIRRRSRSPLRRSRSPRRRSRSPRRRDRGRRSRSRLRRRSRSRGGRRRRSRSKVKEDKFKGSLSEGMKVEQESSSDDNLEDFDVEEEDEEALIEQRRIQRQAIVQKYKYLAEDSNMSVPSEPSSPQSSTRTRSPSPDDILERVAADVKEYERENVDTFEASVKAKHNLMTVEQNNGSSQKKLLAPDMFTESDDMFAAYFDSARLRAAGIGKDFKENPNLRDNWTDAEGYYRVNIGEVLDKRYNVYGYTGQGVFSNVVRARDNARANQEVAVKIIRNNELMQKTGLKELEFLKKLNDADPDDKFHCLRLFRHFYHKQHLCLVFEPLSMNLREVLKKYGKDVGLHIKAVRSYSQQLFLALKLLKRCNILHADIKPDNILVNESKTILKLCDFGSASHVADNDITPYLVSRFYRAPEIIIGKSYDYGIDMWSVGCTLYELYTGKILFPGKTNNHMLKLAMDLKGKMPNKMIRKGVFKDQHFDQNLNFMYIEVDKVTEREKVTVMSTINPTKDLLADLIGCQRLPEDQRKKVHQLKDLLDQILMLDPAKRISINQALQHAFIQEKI", "assay": "Selectivity interaction (Kinase panel (KiNativ target engagement assay in Jurkat cells)) EUB0001635a PRPF4", "assay_type": "cell-based", "conditions": "Selectivity number of off-targets 0.0, Selectivity number of targets 233.0, Source Knowledge https://www.sciencedirect.com/science/article/pii/S2451945619300674?via%3Dihub, at 1 µM"}, "[5]": {"target": "T1, Serine/threonine-protein kinase LATS2 (Homo sapiens) (UniProt Q9NRM7)", "T1 sequence (whole entry)": "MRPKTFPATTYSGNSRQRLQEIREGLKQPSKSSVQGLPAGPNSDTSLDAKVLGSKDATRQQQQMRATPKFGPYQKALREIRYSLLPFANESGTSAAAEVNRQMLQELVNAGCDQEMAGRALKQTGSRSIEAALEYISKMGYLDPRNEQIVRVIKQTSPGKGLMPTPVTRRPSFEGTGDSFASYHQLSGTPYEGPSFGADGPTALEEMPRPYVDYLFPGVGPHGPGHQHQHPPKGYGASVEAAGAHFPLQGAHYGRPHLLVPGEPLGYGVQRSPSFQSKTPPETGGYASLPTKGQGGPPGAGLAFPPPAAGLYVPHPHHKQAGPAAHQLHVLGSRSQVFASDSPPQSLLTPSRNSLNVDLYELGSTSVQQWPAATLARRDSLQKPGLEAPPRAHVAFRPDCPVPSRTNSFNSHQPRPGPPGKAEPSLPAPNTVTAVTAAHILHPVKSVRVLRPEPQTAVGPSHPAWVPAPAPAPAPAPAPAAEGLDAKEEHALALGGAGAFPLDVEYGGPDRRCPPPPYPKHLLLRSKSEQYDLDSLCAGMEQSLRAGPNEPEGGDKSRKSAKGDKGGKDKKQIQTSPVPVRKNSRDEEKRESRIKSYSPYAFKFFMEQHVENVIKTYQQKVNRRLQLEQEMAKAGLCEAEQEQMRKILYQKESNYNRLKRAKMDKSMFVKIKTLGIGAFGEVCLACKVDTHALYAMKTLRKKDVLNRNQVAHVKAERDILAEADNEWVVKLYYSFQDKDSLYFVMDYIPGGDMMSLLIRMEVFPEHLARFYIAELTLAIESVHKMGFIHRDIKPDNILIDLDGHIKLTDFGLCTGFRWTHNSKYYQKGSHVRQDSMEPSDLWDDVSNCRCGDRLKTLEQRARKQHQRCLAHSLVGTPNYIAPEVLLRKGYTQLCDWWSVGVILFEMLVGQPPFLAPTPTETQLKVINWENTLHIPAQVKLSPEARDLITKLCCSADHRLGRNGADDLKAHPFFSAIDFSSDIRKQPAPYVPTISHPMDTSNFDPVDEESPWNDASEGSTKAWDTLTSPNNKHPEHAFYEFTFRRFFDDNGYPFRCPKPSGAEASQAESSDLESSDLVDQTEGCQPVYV", "assay": "Selectivity interaction (KinomeScan (DiscoverX)) EUB0000666a LATS2", "conditions": "at 10 µM"}, "[6]": {"target": "Serine/threonine-protein kinase MARK1 (Homo sapiens) (UniProt Q9P0L2)", "assay": "Selectivity interaction (KinomeScan (DiscoverX)) EUB0000607a MARK1", "conditions": "at 10 µM"}, "[7]": {"target": "Tyrosine-protein kinase Yes (Homo sapiens) (UniProt P07947)", "sequence (P07947 2-543 limits assumed)": "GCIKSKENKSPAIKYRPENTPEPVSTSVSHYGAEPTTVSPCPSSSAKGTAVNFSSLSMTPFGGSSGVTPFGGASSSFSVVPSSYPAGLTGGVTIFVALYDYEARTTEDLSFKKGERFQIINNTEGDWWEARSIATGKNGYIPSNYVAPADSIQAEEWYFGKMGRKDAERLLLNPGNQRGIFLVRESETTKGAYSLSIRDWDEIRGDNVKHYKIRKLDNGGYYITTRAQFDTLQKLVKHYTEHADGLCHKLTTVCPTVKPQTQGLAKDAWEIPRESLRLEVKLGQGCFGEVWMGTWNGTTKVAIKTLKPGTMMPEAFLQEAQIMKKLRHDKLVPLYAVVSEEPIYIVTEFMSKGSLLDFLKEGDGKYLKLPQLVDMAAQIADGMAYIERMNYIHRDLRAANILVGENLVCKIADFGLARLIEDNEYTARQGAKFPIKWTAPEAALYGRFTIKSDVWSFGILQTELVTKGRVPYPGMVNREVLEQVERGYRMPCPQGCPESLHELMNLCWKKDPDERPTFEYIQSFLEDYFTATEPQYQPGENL", "assay": "Selectivity interaction (KinomeScan (DiscoverX)) EUB0001049a YES1", "conditions": "at 1 µM"}, "[8]": {"system": "Serine/threonine-protein kinase B-raf (Homo sapiens), P15056 [V600E]", "sequence (P15056 whole entry V600E)": "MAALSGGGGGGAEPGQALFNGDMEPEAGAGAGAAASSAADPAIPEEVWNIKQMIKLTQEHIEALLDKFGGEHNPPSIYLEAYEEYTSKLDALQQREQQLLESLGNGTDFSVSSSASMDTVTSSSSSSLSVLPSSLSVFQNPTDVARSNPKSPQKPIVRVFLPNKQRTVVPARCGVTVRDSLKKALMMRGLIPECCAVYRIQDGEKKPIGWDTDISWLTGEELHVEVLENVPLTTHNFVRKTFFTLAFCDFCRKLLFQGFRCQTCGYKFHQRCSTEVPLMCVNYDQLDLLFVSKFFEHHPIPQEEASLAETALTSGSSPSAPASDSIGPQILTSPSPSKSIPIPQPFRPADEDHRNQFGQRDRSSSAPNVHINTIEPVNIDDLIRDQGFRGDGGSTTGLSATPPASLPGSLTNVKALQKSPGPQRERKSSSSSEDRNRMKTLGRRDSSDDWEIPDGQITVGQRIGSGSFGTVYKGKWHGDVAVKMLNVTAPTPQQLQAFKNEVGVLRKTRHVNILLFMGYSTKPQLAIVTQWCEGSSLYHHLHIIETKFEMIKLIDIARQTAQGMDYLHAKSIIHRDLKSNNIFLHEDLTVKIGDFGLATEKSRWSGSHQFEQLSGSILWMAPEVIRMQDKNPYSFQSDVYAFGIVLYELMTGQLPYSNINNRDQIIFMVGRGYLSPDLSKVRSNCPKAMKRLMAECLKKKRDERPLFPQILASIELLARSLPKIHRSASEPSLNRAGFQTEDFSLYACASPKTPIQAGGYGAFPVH", "assay": "Selectivity interaction (KinomeScan (DiscoverX)) EUB0000618a BRAF", "conditions": "at 10 µM"}, "[9]": {"target": "Ephrin type-A receptor 5 (Homo sapiens) (UniProt P54756)", "assay": "Selectivity interaction (Ambit KINOMEscan and KiNATiv profiling in Jurkat cells) EUB0000090b EPHA5", "assay_type": "cell-based", "conditions": "at 1 µM"}, "[10]": {"target": "G protein-coupled receptor kinase 4 (Homo sapiens) (UniProt P32298)", "sequence (P32298 whole entry, looked up)": "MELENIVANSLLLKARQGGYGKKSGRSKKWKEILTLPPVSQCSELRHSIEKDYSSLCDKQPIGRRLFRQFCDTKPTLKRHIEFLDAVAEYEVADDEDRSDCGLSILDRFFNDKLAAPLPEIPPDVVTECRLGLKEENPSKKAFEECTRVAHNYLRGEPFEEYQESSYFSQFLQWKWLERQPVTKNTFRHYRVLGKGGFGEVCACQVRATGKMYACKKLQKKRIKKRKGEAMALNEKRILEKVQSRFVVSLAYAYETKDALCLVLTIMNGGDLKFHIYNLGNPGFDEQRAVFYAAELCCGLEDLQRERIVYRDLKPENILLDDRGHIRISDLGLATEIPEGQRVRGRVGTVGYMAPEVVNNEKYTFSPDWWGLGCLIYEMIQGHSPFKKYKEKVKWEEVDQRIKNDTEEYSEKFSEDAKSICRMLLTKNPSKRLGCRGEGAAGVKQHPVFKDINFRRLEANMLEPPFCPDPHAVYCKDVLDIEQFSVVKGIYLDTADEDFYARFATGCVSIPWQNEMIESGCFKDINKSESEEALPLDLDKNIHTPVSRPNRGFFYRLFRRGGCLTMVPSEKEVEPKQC", "assay": "Selectivity interaction (KinomeScan (DiscoverX)) EUB0001619a GRK4", "conditions": "at 1 µM"}, "[11]": {"target": "T2, Scaffold protein ILK (Homo sapiens) (UniProt Q13418)", "T2 sequence (whole entry)": "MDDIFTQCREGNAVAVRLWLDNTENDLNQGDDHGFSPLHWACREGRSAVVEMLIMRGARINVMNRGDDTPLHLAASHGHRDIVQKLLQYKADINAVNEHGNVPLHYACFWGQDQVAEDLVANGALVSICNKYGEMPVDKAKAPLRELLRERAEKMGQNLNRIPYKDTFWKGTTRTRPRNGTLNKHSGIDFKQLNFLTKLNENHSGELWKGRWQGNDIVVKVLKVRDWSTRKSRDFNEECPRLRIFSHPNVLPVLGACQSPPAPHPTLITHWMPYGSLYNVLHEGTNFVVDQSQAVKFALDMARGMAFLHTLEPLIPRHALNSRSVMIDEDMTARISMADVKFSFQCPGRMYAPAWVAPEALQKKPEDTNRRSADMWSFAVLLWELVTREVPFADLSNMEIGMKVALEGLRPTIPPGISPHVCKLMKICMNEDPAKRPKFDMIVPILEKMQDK", "assay": "Selectivity interaction (ActivX KiNativ screen (ex vivo kinase selectivity in human PBMCs)) EUB0001619a ILK", "assay_type": "cell-based", "conditions": "PBMC, at 1 µM"}},
  "data": [
    {"smiles": "CCC(=O)N1CCN(c2ccc(-n3c(=O)ccc4cnc5ccc(-c6cnc7ccccc7c6)cc5c43)cc2C(F)(F)F)CC1", "values": [
      {"measurement": "% of control", "setting": "[1]", "result": 50, "unit": "%"}
    ]},
    {"smiles": "CN(C)CCOc1ccc(-c2nc(-c3ccncc3)c(-c3ccc4c(c3)CC/C4=N\\O)[nH]2)cc1", "values": [
      {"measurement": "% of control", "setting": "[2]", "result": 99, "unit": "%"}
    ]},
    {"smiles": "Nc1cnc(N2CCc3cc(S(=O)(=O)Nc4c(F)cc(Cl)cc4F)cc(N4CCCC4=O)c32)nc1", "note": "[TP-020n]", "values": [
      {"measurement": "% of control", "setting": "[3]", "result": 97, "unit": "%"}
    ]},
    {"smiles": "C=CC(=O)Nc1ccc(C(=O)Nc2[nH]nc3c2CN(C(=O)N[C@H](CN(C)C)c2ccccc2)C3(C)C)cc1", "values": [
      {"measurement": "% of engagement", "setting": "[4]", "result": -2.9, "unit": "%"}
    ]},
    {"smiles": "O=C(NOC[C@H](O)CO)c1ccc(F)c(F)c1Nc1ccc(I)cc1F", "values": [
      {"measurement": "% of control", "setting": "[5]", "result": 74, "unit": "%"}
    ]},
    {"smiles": "CNC(=O)Nc1ccc(-c2nc(N3CC4CCC(C3)O4)c3cnn(C4CCC5(CC4)OCCO5)c3n2)cc1", "values": [
      {"measurement": "% of control", "setting": "[6]", "result": 100, "unit": "%"}
    ]},
    {"smiles": "COc1cc(Nc2nc(C)cc(-c3cnn4nc(OC)ccc34)n2)cc(C(F)(F)F)c1", "values": [
      {"measurement": "% of control", "setting": "[7]", "result": 80, "unit": "%"}
    ]},
    {"smiles": "O[C@H]1CC[C@H](Nc2ncc3nc(Nc4c(F)cc(F)cc4F)n([C@H]4CCOC4)c3n2)CC1", "values": [
      {"measurement": "% of control", "setting": "[8]", "result": 98, "unit": "%"}
    ]},
    {"smiles": "CN(C)C/C=C/C(=O)Nc1ccc(C(=O)N2CCCC(Nc3ncc(Cl)c(-c4c[nH]c5ccccc45)n3)C2)cc1", "note": "(stereo unspecified)", "values": [
      {"measurement": "% of control", "setting": "[9]", "result": 89, "unit": "%"}
    ]},
    {"smiles": "N#Cc1cccc(-c2c[nH]c3ncnc(N4CCOCC4)c23)c1", "values": [
      {"measurement": "% of control", "setting": "[10]", "result": 52, "unit": "%"},
      {"measurement": "% of inhibition", "setting": "[11]", "result": -12, "unit": "%"}
    ]}
  ]
}
